Test results reported in BindingDB's records for doi:10.1124/jpet.103.049262 (Sanofi-Synthelabo Research, 2003).

Tests used:
[1] = molecular target: Acetylcholine receptor subunit alpha (Homo sapiens, UniProt P02708)
[2] = molecular target: Neuronal acetylcholine receptor subunit alpha-4 (Homo sapiens, UniProt P43681)
Sequence of Neuronal acetylcholine receptor subunit alpha-4 (P43681 whole entry): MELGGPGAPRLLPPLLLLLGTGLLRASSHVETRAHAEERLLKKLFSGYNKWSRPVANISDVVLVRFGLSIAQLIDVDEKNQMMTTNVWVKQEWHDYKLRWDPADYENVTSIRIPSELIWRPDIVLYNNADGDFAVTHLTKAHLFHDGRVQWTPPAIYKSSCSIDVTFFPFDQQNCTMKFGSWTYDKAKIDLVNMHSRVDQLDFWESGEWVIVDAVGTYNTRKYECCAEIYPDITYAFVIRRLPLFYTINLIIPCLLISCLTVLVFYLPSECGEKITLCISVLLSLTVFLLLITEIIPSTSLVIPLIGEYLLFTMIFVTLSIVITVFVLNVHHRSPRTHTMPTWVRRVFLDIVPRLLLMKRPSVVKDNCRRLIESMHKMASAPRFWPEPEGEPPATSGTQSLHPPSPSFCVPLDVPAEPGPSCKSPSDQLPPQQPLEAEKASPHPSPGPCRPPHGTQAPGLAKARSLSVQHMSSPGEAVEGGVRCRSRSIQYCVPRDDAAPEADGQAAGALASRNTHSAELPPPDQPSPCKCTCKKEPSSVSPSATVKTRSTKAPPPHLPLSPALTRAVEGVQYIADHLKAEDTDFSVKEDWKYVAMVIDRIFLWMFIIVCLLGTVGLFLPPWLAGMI

Sequence of Acetylcholine receptor subunit alpha (P02708 as listed by the source): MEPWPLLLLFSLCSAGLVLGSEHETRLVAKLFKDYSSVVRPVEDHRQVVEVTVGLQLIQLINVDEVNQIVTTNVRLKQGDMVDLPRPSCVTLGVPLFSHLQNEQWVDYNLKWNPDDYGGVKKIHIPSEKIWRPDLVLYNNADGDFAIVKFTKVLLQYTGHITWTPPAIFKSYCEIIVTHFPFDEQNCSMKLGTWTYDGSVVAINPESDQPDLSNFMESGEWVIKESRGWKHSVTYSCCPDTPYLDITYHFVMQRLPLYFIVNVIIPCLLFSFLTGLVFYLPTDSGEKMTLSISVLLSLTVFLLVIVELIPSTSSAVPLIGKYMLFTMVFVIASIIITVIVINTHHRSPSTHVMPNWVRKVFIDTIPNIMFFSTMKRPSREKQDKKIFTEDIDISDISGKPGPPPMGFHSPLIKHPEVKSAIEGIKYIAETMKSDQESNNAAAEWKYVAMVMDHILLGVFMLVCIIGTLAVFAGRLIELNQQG

Question: Which results are given for `c1cnc2c(c1)O[C@H]1CCN3CC[C@@]1(C2)C3`?
Answer: Ki [1]: 6 µM; Ki [2]: 0.036 µM
